Columns and labels:
Format in all cases: functional
Solanum = experiment: Herbicidal activity against Solanum assessed as control at 1 kg/hacter post-emergently
Amaranthus spinosus = experiment: Herbicidal activity against Amaranthus spinosus assessed as control at 1 kg/hacter post-emergently
Abutilon = experiment: Herbicidal activity against Abutilon assessed as control at 1 kg/hacter post-emergently
[1] = Herbicidal activity against biennial weeds assessed as control at 1 kg/hacter post-emergently

SMILES: CCCC[C@H]1O[C@H]1CCOc1cccc([C@@H]2CCC[C@H](CC(=O)OC)O2)c1
- Efficacy (Solanum): 90%
- Efficacy (Amaranthus spinosus): 30%
- Efficacy (Abutilon): 10%
- Efficacy [1]: 10%

SMILES: COC(=O)C[C@H]1CC[C@H](C)[C@@H](/C(C)=C/C=C/[C@@H](C)C[C@@]2(C)O[C@@H]2[C@H](C)[C@@H](OC)[C@@H](C)O)O1 [HERBOXIDIENE METHYL ESTER]
- Efficacy (Solanum): 100%
- Efficacy (Amaranthus spinosus): 100%
- Efficacy (Abutilon): 100%
- Efficacy [1]: 100%
